In ChEMBL document CHEMBL6182865, “Discovery of potent free fatty acid receptor 1 full agonists with a novel scaffold bearing conjugated double bond linker” (Bioorg Med Chem, 2025):
Calls of active or inactive are those of the source. The rule behind the calls is not given here.

Assays:
[1] = target: T1, Free fatty acid receptor 1 (Homo sapiens, UniProt O14842); experiment: Agonist activity at GPR40 (unknown origin) expressed in HEK293 cells assessed as intracellular cAMP level incubated for 30 mins by LANCE Ultra cAMP kit based multiplate reader analysis; format: functional, cell-based
T1 sequence (O14842 whole entry): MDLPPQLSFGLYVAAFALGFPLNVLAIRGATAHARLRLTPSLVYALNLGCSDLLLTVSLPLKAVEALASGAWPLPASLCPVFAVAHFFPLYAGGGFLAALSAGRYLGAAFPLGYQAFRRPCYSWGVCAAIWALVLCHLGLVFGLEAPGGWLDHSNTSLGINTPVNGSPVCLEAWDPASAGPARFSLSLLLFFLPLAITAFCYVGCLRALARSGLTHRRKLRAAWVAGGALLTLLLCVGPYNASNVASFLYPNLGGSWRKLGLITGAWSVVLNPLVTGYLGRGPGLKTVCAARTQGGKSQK

[2] = target: T1, Free fatty acid receptor 1; experiment: Agonist activity at GPR40 (unknown origin) expressed in HEK293 cells assessed as intracellular inositol phosphate accumulation incubated for 30 mins by IP-one HTRF analysis; format: functional, cell-based
[3] = target: T1, Free fatty acid receptor 1; experiment: Partial agonist activity at GPR40 (unknown origin) expressed in HEK293 cells assessed as intracellular inositol phosphate accumulation by measuring maximum efficacy incubated for 30 mins by IP-one HTRF analysis relative to control; format: functional, cell-based; conditions: filed as partial agonist
Mus musculus [4] = experiment: Hypoglycemic effect in male C57BL/6 mouse assessed as reduction in blood glucose level at 10 mg/kg, po preadministered with compound for 60 mins followed by glucose administration at 0 hrs and measured up to 90 mins by oral glucose tolerance test; format: functional, organism-based; conditions: time <= […] min
Mus musculus [5] = experiment: Hypoglycemic effect in male C57BL/6 mouse assessed as reduction in blood glucose level at 30 mg/kg, po preadministered with compound for 60 mins followed by glucose administration at 0 hrs and measured up to 90 mins by oral glucose tolerance test; format: functional, organism-based; conditions: time <= 150.0 min
Mus musculus [6] = experiment: Hypoglycemic effect in male po dosed C57BL/6 mouse preadministered with compound for 60 mins followed by glucose administration at 0 hrs and measured up to 90 mins by oral glucose tolerance test; format: functional, organism-based; conditions: dose 3-30 mg/kg, time <= 150.0 min
Mus musculus [7] = experiment: Hypoglycemic effect in male C57BL/6 mouse assessed as reduction in blood glucose level at 3 mg/kg, po preadministered with compound for 60 mins followed by glucose administration at 0 hrs and measured up to 90 mins by oral glucose tolerance test; format: functional, organism-based; conditions: time <= 150.0 min

Row | Compound | EC50 [1] [µM] | EC50 [2] [µM] | other results
1 | COc1ccc(OC)c(/C=C(C)/C=C/COc2cccc(C(CC(=O)O)C3CC3)c2)c1 (stereo not drawn) | > 10 | 0.894 | 
2 | Cc1cc(OCCCS(C)(=O)=O)cc(C)c1-c1cccc(COc2ccc3c(c2)OC[C@H]3CC(=O)O)c1 |  |  | Emax [3]: 77.8%
3 | COc1ccc(OCCC(C)(C)C)c(/C=C(C)/C=C/COc2cccc([C@H](C3CC3)[C@@](C)(F)C(=O)O)c2)c1 | 0.261 | 0.00323 | Activity (Mus musculus [4]): Active; Activity (Mus musculus [5]): Active; Compound Showed Better Effect Compared With Standard Drug(Sco-267); Activity (Mus musculus [6]): Dose-dependent-effect
4 | COc1ccc(OCCC(C)(C)C)c(/C=C(C)/C=C/COc2cccc([C@H](C3CC3)[C@](C)(F)C(=O)O)c2)c1 | > 10 | 1.05 | 
5 | COc1cc(/C=C(C)/C=C/COc2cccc(C(CC(=O)O)C3CC3)c2)cc(OCc2ccc(Cl)cc2F)c1 (stereo not drawn) | > 10 | 1.36 | 
6 | CCCOc1ccc(OC)cc1/C=C(C)/C=C/COc1cccc(C(CC(=O)O)C2CC2)c1 (stereo not drawn) | > 10 | 0.364 | 
7 | COc1ccc(F)c(CCCCCCOc2cccc(C(CC(=O)O)C3CC3)c2)c1 (stereo not drawn) | > 10 | > 10 | 
8 | COc1ccc(F)c(CCCOc2cccc(C(CC(=O)O)C3CC3)c2)c1 (stereo not drawn) | > 10 | > 10 | 
9 | COc1ccc(F)c(/C=C/C=C/COc2cccc(C(CC(=O)O)C3CC3)c2)c1 (stereo not drawn) | > 10 | 1.77 | 
10 | COc1cc(/C=C(C)/C=C/COc2cccc(C(CC(=O)O)C3CC3)c2)cc(OCCC(C)(C)C)c1 (stereo not drawn) | > 10 | 0.943 | 
11 | COc1ccc(OCCCC(C)C)c(/C=C(C)/C=C/COc2cccc(C(CC(=O)O)C3CC3)c2)c1 (stereo not drawn) | 6.87 | 0.134 | 
12 | COc1ccc(OCc2ccccc2)c(/C=C(C)/C=C/COc2cccc(C(CC(=O)O)C3CC3)c2)c1 (stereo not drawn) | > 10 | 0.204 | 
13 | COc1ccc(OCC2CC2)c(/C=C(C)/C=C/COc2cccc(C(CC(=O)O)C3CC3)c2)c1 (stereo not drawn) | > 10 | 0.367 | 
14 | COc1ccc(C(=O)N(CC(C)(C)C)c2cccc(C)n2)c(N2CCC(COc3cc([C@@H](CC(=O)O)C4CC4)ccn3)CC2)c1 | 0.0879 | 0.00111 | Activity (Mus musculus [7]): Active
15 | COc1ccc(F)c(CCCCOc2cccc(C(CC(=O)O)C3CC3)c2)c1 (stereo not drawn) | > 10 | 6.7 | 
